The values that follow come from US20140106390A1, “BIOMARKERS FOR THE TREATMENT OF MULTIPLE MYELOMA” (CELGENE CORPORATION, priority 2011, published 2014).

The conditions of series [1]: compared with the racemic mixture; cited from earlier work.
The nature of series [2]: Phase Ib ascending dose study of pomalidomide (MTD). The following applies: 45 relapsed and refractory multiple myeloma patients. In kind it is in vivo. On the procedure: M-protein measurements entered from data with pomalidomide in relapsed and refractory multiple myeloma patients consists of one completed and two ongoing studies. In a Phase Ib ascending dose study in 45 patients, the MTD of pomalidomide was 2 mg administered daily or 5 mg administered on an every other day schedule. These subjects tolerated alternate day dosing better than daily dosing based on dose-limiting toxicity (DLT), however, the AE profiles were similar for both dosing regimens.

Series [3] deals with serum M-protein. Put plainly: Tumor growth inhibition (TGI) model for pomalidomide single agent fitted to serum M-protein data, Phase I/II pomalidomide study. In kind it is in vivo, patients. The following applies: population estimate. As to the method: The Phase I segment investigates whether pomalidomide single agent dose could be escalated up to 5 mg daily using the cyclic schedule. The Phase II segment has progression free survival (PFS) as the primary endpoint and an interim analysis is planned at 50% of the events.
A semi-mechanistic exposure-driven tumor growth inhibition (TGI) model was used to model serum M-protein data (taken as a marker of tumor size) as function of time and drug dose levels. The TGI model is described by the following differential equation system: […]
where y(t) is the at time t with y0 value at baseline (g/L),
KL, is the rate of M-protein level increase (tumor growth rate) (week^−1),
KD, is the rate of drug-induced M-protein decrease (drug potency, mg^−1.week^−1)
KD decreases with time (from KD,0 at time 0, full effect) with the rate constant λ, (week^−1)
D (t) is the amount of drug at the site of action (mg) (“KPD model”) (see Jacqim et al., J. Pharmacokinet. Pharmacodyn. (2007), 31: 57-85),
Kp is the elimination rate constant from the virtual biophase compartment (week^−1).
Model parameters were estimated by maximum likelihood in non-linear mixed effect model using NONMEM VI level 1.0 FOCE method with interaction (Beal et al., NONMEM user's guide. (1992) San Francisco: University of California at San Francisco NONMEM Project Group). […]

In the case of `Nc1cccc2c1C(=O)N([C@H]1CCC(=O)NC1=O)C2=O` [(S)-isomer of 4-(amino)-2-(2,6-dioxo(3-piperidyl))-isoindoline-1,3-dione, (S)-4-(amino)-2-(2,6-dioxo(3-piperidyl))-isoindoline-1,3-dione], the potency result in series [1] was “higher potency than the racemic mixture”.
As for `Nc1cccc2c1C(=O)N(C1CCC(=O)NC1=O)C2=O` (centres unmarked) [pomalidomide, 4-amino-2-(2,6-dioxopiperidin-3-yl)isoindole-1,3-dione], the MTD in series [2] (administered daily) came out at 2 mg; in series [2] (administered on an every other day schedule) it was 5 mg. The “λ, rate constant of decrease of KD with time (resistance appearance), estimate” value in series [3] is given as 0.128 wk^−1. Also, the “KL, rate of M-protein level increase (tumor growth rate), estimate” value in series [3] (37 patients) is on record as 0.036 wk^−1.
